In ChEMBL document CHEMBL1201862, “PubChem BioAssay data set” (2004):
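Five concentrations, 48 hours, 96-well plates. Here, GI50 denotes the concentration required for 50% inhibition of growth.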 Activity calls are given as the source filed them. Rule as the data show it: active = GI50 up to about 1.1 µM and inactive = higher.

Tests used:
Assay in all cases: NCI-60 cell line screen, 48 h
TK-10 = system: TK-10
M14 = system: M14
RXF 393 = system: RXF 393
UACC-257 = system: UACC-257
MDA-MB-435 = system: MDA-MB-435
ACHN = system: ACHN
HOP-62 = system: HOP-62
EKVX = system: EKVX
DU-145 = system: DU-145
SK-MEL-28 = system: SK-MEL-28
LOX IMVI = system: LOX IMVI
SK-OV-3 = system: SK-OV-3
CCRF-CEM = system: CCRF-CEM
SF-295 = system: SF-295
OVCAR-8 = system: OVCAR-8
K562 = system: K562
OVCAR-5 = system: OVCAR-5
T47D = system: T47D
MCF7 = system: MCF7

Measured: GI50

c1ccc(-c2sc(-c3ccccc3)c3c2C2CCC3C2)cc1
inactive: TK-10 27 µM | M14 35.3 µM | RXF 393 24.3 µM | UACC-257 40.3 µM | MDA-MB-435 38.6 µM | ACHN 36.1 µM | HOP-62 38.2 µM | EKVX 42.1 µM | DU-145 > 100 µM | SK-MEL-28 49 µM | LOX IMVI 28.8 µM | SK-OV-3 64 µM | CCRF-CEM 43.9 µM | SF-295 35.1 µM | OVCAR-8 32.9 µM | K562 35.2 µM | OVCAR-5 53.8 µM | T47D 38.7 µM

O=C(O)c1cc(CC2Cc3cc4c(cc3C2=O)CCC4)cc2c1CCC2 (stereo not drawn)
inactive: TK-10 > 100 µM | M14 > 100 µM | UACC-257 > 100 µM | MDA-MB-435 > 100 µM | ACHN 61 µM | HOP-62 > 100 µM | EKVX > 100 µM | DU-145 > 100 µM | MCF7 > 100 µM | SK-MEL-28 > 100 µM | LOX IMVI 84.1 µM | SK-OV-3 > 100 µM | CCRF-CEM 59.3 µM | SF-295 > 100 µM | OVCAR-8 > 100 µM | K562 40.9 µM | OVCAR-5 > 100 µM | T47D > 100 µM

COc1cc(C(C)=O)cc(C(=O)N(C(C)C)C(C)C)c1[Si](C)(C)C
inactive: TK-10 > 100 µM | M14 > 100 µM | UACC-257 > 100 µM | MDA-MB-435 > 100 µM | ACHN > 100 µM | HOP-62 > 100 µM | DU-145 > 100 µM | MCF7 > 100 µM | SK-MEL-28 > 100 µM | LOX IMVI > 100 µM | SK-OV-3 28.9 µM | CCRF-CEM > 100 µM | SF-295 > 100 µM | OVCAR-8 > 100 µM | T47D > 100 µM

CC(C)(C)c1cc(C(C)(C)C)c(SSc2c(C(C)(C)C)cc(C(C)(C)C)c(O)c2O)c(O)c1O
inactive: M14 11.7 µM | RXF 393 16.4 µM | UACC-257 9.95 µM | MDA-MB-435 4.3 µM | ACHN 11.4 µM | EKVX 16.4 µM | MCF7 10.3 µM | SK-MEL-28 16.3 µM | LOX IMVI 9.64 µM | CCRF-CEM 2.5 µM | OVCAR-8 12.3 µM | K562 6.43 µM | OVCAR-5 15.8 µM | T47D 4.32 µM

CC1(C)/C(=N\NC(N)=O)C2CCC1C2 (stereo not drawn)
inactive: TK-10 > 100 µM | M14 > 100 µM | UACC-257 > 100 µM | MDA-MB-435 > 100 µM | ACHN > 100 µM | HOP-62 > 100 µM | EKVX > 100 µM | DU-145 > 100 µM | MCF7 > 100 µM | SK-MEL-28 > 100 µM | LOX IMVI > 100 µM | SK-OV-3 > 100 µM | CCRF-CEM > 100 µM | SF-295 > 100 µM | OVCAR-8 > 100 µM | K562 > 100 µM | OVCAR-5 > 100 µM | T47D > 100 µM

O=[N+]([O-])/C(C(Cl)=C(Cl)Cl)=C(/Nc1ccccc1)SCc1ccccc1
inactive: TK-10 29.8 µM | M14 16.9 µM | RXF 393 19.4 µM | UACC-257 24 µM | MDA-MB-435 17.8 µM | ACHN 28.3 µM | HOP-62 19.1 µM | EKVX 21 µM | DU-145 23.6 µM | SK-MEL-28 20.4 µM | LOX IMVI 20.5 µM | SK-OV-3 52 µM | CCRF-CEM 15 µM | SF-295 34.4 µM | OVCAR-8 17.7 µM | K562 24 µM | OVCAR-5 20 µM | T47D 34.6 µM

CCNC(=S)NNC(=O)c1ccccc1Nc1ccccc1C(=O)NNC(=S)NCC
inactive: TK-10 > 100 µM | M14 > 100 µM | MDA-MB-435 > 100 µM | ACHN > 100 µM | HOP-62 > 100 µM | EKVX > 100 µM | DU-145 > 100 µM | MCF7 > 100 µM | SK-MEL-28 > 100 µM | LOX IMVI > 100 µM | SK-OV-3 > 100 µM | CCRF-CEM > 100 µM | SF-295 > 100 µM | OVCAR-8 > 100 µM | K562 > 100 µM | OVCAR-5 > 100 µM | T47D > 100 µM

O=C(O)c1ccc(Nc2nc3ccccc3nc2-c2cccs2)cc1
inactive: TK-10 > 100 µM | RXF 393 39.4 µM | UACC-257 > 100 µM | MDA-MB-435 > 100 µM | ACHN 98.9 µM | HOP-62 > 100 µM | EKVX 92.5 µM | DU-145 > 100 µM | SK-MEL-28 > 100 µM | LOX IMVI 35.1 µM | SK-OV-3 > 100 µM | CCRF-CEM > 100 µM | SF-295 > 100 µM | OVCAR-8 54.2 µM | K562 45.5 µM | OVCAR-5 > 100 µM | T47D 47 µM

COc1ccc(N2C(=O)C(=O)N(c3ccccc3[N+](=O)[O-])C2=S)cc1
inactive: TK-10 21.7 µM | RXF 393 18 µM | UACC-257 17.1 µM | MDA-MB-435 27.4 µM | ACHN 28.4 µM | HOP-62 50 µM | EKVX 30.5 µM | DU-145 38.4 µM | SK-MEL-28 33 µM | LOX IMVI 16.6 µM | SK-OV-3 25.1 µM | CCRF-CEM 81.7 µM | SF-295 35.1 µM | OVCAR-8 21.1 µM | K562 32.1 µM | OVCAR-5 22.4 µM | T47D 22.6 µM

O=C1CSc2nnc(CCCCCCCCc3nnc4n3NC(=O)CS4)n2N1
inactive: M14 > 100 µM | UACC-257 42.6 µM | MDA-MB-435 > 100 µM | ACHN > 100 µM | HOP-62 46 µM | EKVX > 100 µM | DU-145 > 100 µM | MCF7 45.6 µM | SK-MEL-28 > 100 µM | SK-OV-3 > 100 µM | CCRF-CEM 15.3 µM | SF-295 85.1 µM | OVCAR-8 27.4 µM | K562 37.8 µM | OVCAR-5 > 100 µM | T47D > 100 µM

C[C@]12CC[C@@H]3c4cc(I)c(O)cc4CC[C@H]3[C@@H]1CC[C@@H]2O
inactive: TK-10 9.68 µM | M14 4.09 µM | RXF 393 6.07 µM | UACC-257 8.61 µM | ACHN 8.75 µM | EKVX 2.65 µM | MCF7 5.87 µM | SK-MEL-28 7.96 µM | LOX IMVI 4.17 µM | SK-OV-3 4.25 µM | CCRF-CEM 3.15 µM | SF-295 3.48 µM | OVCAR-8 6.52 µM | K562 3.52 µM | OVCAR-5 12.7 µM | T47D 8.55 µM

COc1ccc2cc3[n+](cc2c1OC)CCc1cc2c(cc1-3)OCO2 [BERBERINE CHLORIDE]
inactive: TK-10 > 100 µM | M14 22.8 µM | RXF 393 68.5 µM | MDA-MB-435 12.8 µM | ACHN > 100 µM | DU-145 > 44.5 µM | SK-MEL-28 22.2 µM | LOX IMVI 77.1 µM | SK-OV-3 84.5 µM | CCRF-CEM 13.2 µM | OVCAR-8 12.7 µM | K562 16.6 µM | OVCAR-5 58.3 µM | T47D 10.3 µM
